Reference: US20220409696A1, “Heparin-Associated Polypeptides and Uses Thereof” (Juvena Therapeutics, Inc., priority 2021, published 2022)

Key:
human myoblast cells = experiment: Human myoblast differentiation (% eMyHC area), IGF2 and/or sodium butyrate; assay type: cell-based; settings: IGF2 0.015 ug/mL, 96 h (FIG. 3B/3C)
Method: Human myoblast cells were treated with either PBS (vehicle), IGF2 (15 ng/mL), sodium butyrate, or IGF2 and sodium butyrate. Fresh media was added every 24 hours. After 96 hours, cells were pulsed for 2-5 hours with EdU (30 uM), ethanol fixed, stained with Hoescht 3342, immunostained for proliferation—as measured by the percent of cells staining positive for EdU (% EdU)-, and immunostained for differentiation—as measured by the increase in cellular area staining positive for embryonic myosin heavy chain (% eMyHC) relative to the negative controls, which received media and vehicle only. The total area of eMyHc positive cells was analyzed, and treated cells were compared to cells treated with the vehicle alone. […] Significance was determined by a p-value less than 0.05 by the one-way ANOVA Tukey Honest Significant Difference test.
FIG. 3C Bar graph quantitation of % Area eMyHC+ human myoblast in response to indicated treatment compared to IGF2 (15 ng/mL). Myoblast were cultured 96 h in the presence of IGF2 at indicated dose. Fresh media and IGF2 was added every 24 h.
Human myoblast cells were treated with either PBS (vehicle), IGF2 (15 ng/mL), sodium butyrate, or IGF2 and sodium butyrate. Fresh media was added every 24 hours. After 48 hours, cells were pulsed for 2-5 hours with EdU (30 uM), ethanol fixed, stained with Hoescht 3342, immunostained for proliferation […] as measured by the percent of cells staining positive for EdU (% EdU)-, and immunostained for differentiation—as measured by the increase in cellular area staining positive for embryonic myosin heavy chain (% eMyHC) relative to the negative controls, which received media and vehicle only.
Significance was determined by a p-value less than 0.05 by the one-way ANOVA Tukey Honest Significant Difference test.

DM1 human myoblast = experiment: Gene expression fold change in DM1 human myoblast; assay type: cell-based; settings: IGF2 200 ng/mL
Method: Myoblasts were cultured 48 h in the presence of factors (BMP7 50 ng/mL, Butyrate 100 nM, IGF2 200 ng/mL).
Myoblasts were cultured 96 h in the presence of factors (IGF2 200 ng/mL). […] Myoblasts were cultured 48 h in the presence of factors (IGF2 200 ng/mL).
RNA was isolated from each well (RNeasy Mini Kit, Qiagen) and cDNA was obtained by reverse-transcription (High Capacity Reverse Transcription Kit, Thermo Fisher Scientific). Real-time quantitative PCR was performed using QuantStudio3 (Thermo Fisher).
IGF2 was tested individually for its ability to promote proliferation and/or fusion of human muscle progenitor cells from an individual with myotonic dystrophy type 1 (hMD)—a muscular dystrophy caused by mutations in the DMPK1 gene. The effect of IGF2 on myogenic activity was assayed in biological triplicate across a range of concentrations centered around expected physiological levels by adding each factor to hMD myoblasts for 72 hours with daily media changes (DMEM+2% horse serum) and a second pulse of factors at the first media change. After 72 or 96 hours, cells were pulsed for 2-5 hours with EdU (30 uM), ethanol fixed, stained with Hoescht 3342, immunostained for proliferation—as measured by the percent of cells staining positive for EdU (% EdU)-, and immunostained for differentiation—as measured by the increase in cellular area staining positive for embryonic myosin heavy chain (% eMyHC) relative to the negative controls, which received media and vehicle only. Wells were imaged on a Keyence BZ-100 at 4×, the images quantified in Cell Profiler, and the statistics were computed in R. Additionally, RNA was extracted from myoblast and select transcript abundances quantified by qPCR.

[1] = Backbone cleavage on expression from CHO cells (reducing SDS-PAGE, Western blot)
Method: The amino acid backbone of IGF2 is cleaved when expressed from Chinese Hamster Ovary (CHO) cells (FIG. 13A) as visualized on a reducing SDS-PAGE and Western blot (FIG. 13B). The CHO cells were grown in a 37° C. incubator with a humidified atmosphere of 8% CO2 on an orbital shaker platform with a shaking speed 125 rpm to reach 4E6 cells/mL, followed by transferring the calculated volume of cells to fresh, pre-warmed ExpiCHO™ Expression Medium in a shake flask. Incubated flasks in a 37° C. incubator with a humidified atmosphere of 8% CO2 shook on an orbital shaker platform until cultures reached a density of 4×106-6×10^6 viable cells/mL. After mixing each plasmid with 100 ul SFM in a microtube; ExpiFectamine (8 ul×10.5=84 ul) with OptiPro medium (92 ul×10.5=966 ul) in a microtube; adding 100 ul into the plasmid tube and mix by pipetting; After 5 min, add 200 ul into each well and swirl to mix. mix enhancer (15×10.2=153 ul) with feed (600×10.2=6.12 ml), add 615 ul into each well. Culture supernatant collected at intervals was spun down at low speed and high speed, then frozen at −80 deg. Aliquots were analyzed for protein concentration by nanodrop, and then an equivalent amount loaded onto 4-12% SDS-PAGE gels for molecular weight distribution analysis. […]

[2] = Pharmacokinetics after intravenous injection in mice; assay type: in vivo; settings: mice 10-12 weeks old, dose 10 mg/kg (HSA-IGF2R61A), 600 ug/kg (IGF2), Non-Compartment Analysis
Method: Murine pharmacokinetics (PK) represents the absorption, distribution, metabolism, and elimination of drugs from the body. The pharmacokinetic profile of the therapeutic polypeptides were determined in mice (10-12 weeks old). Mice were fed ad libitum and housed under controlled conditions of lighting (12-hour light/12-hour dark) and temperature (22-24° C.). Mice were allowed to acclimate for 3 days prior to the initiation of the experiment. Intravenous (IV) injection in 10-12 weeks old mice. Engineered mitogenic polypeptides concentrations in the samples were measured by ELISA. Various pharmacokinetics will be calculated as well as the absorption/elimination dynamics following different routes of administration.

[3] = 48 h, BMP7 50 ng/mL, Butyrate 100 nM

## IGF2: Human IGF2 polypeptide, amino acids 25 to 91 of SEQ ID NO. 32 (i.e. SEQ ID NO. 29)
Human myoblast cells
  % eMyHC: 10.843%
DM1 human myoblast; 48 h
  ATP1B1 expression fold change compared to FM (vehicle): 3.018
DM1 human myoblast; [3]
  MYF5 myogenic gene expression fold change compared to FM (vehicle): 0.730
  MYODI myogenic gene expression fold change compared to FM (vehicle): 1.252
  MYOG myogenic gene expression fold change compared to FM (vehicle): 2.972
DM1 human myoblast; 96 h
  CKM expression fold change compared to vehicle: 5.165
  MYH3 expression fold change compared to vehicle: 14.833
[1]
  cleavage of the amino acid backbone when expressed from CHO cells: cleaved
[2]
  Half-life: 2.85 h
